Ki data for 24 compounds are collected here from US8236963B2, “Tricyclic spiro derivatives as CRTH2 modulators” (Merck Serono SA, priority 2005, dated 2012).

This test has as its target T1, CRTH2 (Homo sapiens, UniProt Q9Y5Y4).
T1 sequence (Q9Y5Y4 1-395): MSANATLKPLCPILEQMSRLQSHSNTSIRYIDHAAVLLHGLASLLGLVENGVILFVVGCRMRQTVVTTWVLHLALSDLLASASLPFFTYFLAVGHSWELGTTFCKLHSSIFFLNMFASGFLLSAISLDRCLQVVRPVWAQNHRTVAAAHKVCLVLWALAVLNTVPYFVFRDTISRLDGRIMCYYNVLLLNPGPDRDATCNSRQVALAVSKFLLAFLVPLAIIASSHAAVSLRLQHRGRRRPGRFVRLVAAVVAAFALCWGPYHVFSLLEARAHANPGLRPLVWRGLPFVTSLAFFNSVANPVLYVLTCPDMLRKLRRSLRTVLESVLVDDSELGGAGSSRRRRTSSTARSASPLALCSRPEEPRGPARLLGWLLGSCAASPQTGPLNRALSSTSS
The test is described as follows: Determination of Ki (radioligand binding assay, equilibrium competition against [3H]PGD2). More on the design: expressed in transfected cells; host or cells: HEK293 (EBNA) cells, membrane preparation. Particulars: average of at least three independent dose response experiments. The protocol: The inhibitory activity can be investigated by a radioligand binding assay (Sawyer et al., Br. J. Pharmocol 2002, 137, 1163-72). The radioligand binding assay was performed at room temperature in binding buffer (10 mM HEPES/KOH pH […], with protease inhibitor cocktail tablets), containing 1.5 nM [^3H]PGD2 (Amersham, 156 Cie/mmol), and 10 μg of hCRTH2 HEK293 (EBNA) cell membrane protein in a final volume of 100 μl in 96 well plates (Corning, USA). Non-specific binding was determined in the presence of 1 μM PGD2 (Cayman, USA). Competing spiro-indolinones were diluted in dimethylsulphoxide so that the total volume of dimethylsulfoxide was kept constant at 1% dimethylsulphoxide (Me2SO) Serial dilutions of 100 μM and […] were prepared. 10 μl each of these spiro-indolinone stock solutions were added. Incubation (60 min at room temperature) was terminated by rapid filtration through 96 wells hydrophobic GF/C Unifilter plates (Whatman, USA). Filters were washed twice with 250 μl of Tris-HCl pH 7.4, 10 mM MnCl2, and residual radioligand bound to the filters was mixed to 100 μl of liquid scintillation cocktail (Optiphase Supermix, Perkin Elmer, USA) and binding activity was determined by counting residual radioligand using a 1450 Micro-beta scintillation counter (Wallac, UK). The following representative compounds were tested. All inhibited the binding of PGD2 to CRTH2 by more than 70%. • (1′-benzyl-5-chloro-2,2′,5′-trioxospiro[indole-3,3′-pyrrolidin]-1(2H)-yl)acetic acid • (1′-benzyl-5-fluoro-2,2′,5′-trioxospiro[indole-3,3′-pyrrolidin]-1(2H)-yl)acetic acid • 4-(1′-allyl-5-chloro-2,2′,5′-trioxospiro[indole-3,3′-pyrrolidin]-1(2H)-yl)butanoic acid • [5-chloro-1′-(2-methoxyethyl)-2,2′,5′-trioxospiro[indole-3,3′-pyrrolidin]-1(2H)-yl]acetic acid • 4-(1′-benzyl-5-chloro-2,2′,5′-trioxospiro[indole-3,3′-pyrrolidin]-1(2H)-yl)butanoic acid • (1′-benzyl-5-methoxy-2,2′,5′-trioxospiro[indole-3,3′-pyrrolidin]-1(2H)-yl)acetic acid • [5-fluoro-1′-[(2-methoxyethoxy)methyl]-2,2′,5′-trioxospiro[indole-3,3′-pyrrolidin]-1(2H)-yl]acetic acid • 4-(1′-allyl-5-fluoro-2,2′,5′-trioxospiro[indole-3,3′-pyrrolidin]-1(2H)-yl)butanoic acid • 4-(1′-benzyl-5-fluoro-2,2′,5′-trioxospiro[indole-3,3′-pyrrolidin]-1(2H)-yl)butanoic acid
Ki values were determined by equilibrium competition binding experiments against [^3H]PGD2. Ki values were calculated from the formula below and represent the average of at least three independent dose response experiments. The Ki values give the ligand concentrations necessary to inhibit 50% of the binding of [^3H]PGD2 to CRTH2. Ki=IC50/(1+[Concentration of Ligand]/Kd)]
All experiments were performed in 96 well plates, in a final volume of 100 μl according to the above described filtration assay. The concentration of membranes and 3 [H]PGD2, as well as the positive and negative controls were identical to the conditions described above.
`O=C(O)CN1C(=O)C2(CC(=O)N(Cc3ccccc3F)C2=O)c2cc(Cl)ccc21` (stereo not drawn) [Compound 104, [5-chloro-1′-(2-fluorobenzyl)-2,2′,5′-trioxospiro[indole-3,3′-pyrrolidin]-1(2H)-yl]acetic acid] had an inhibition constant Ki of 24 nM.

The compound `O=C(O)CCCN1C(=O)C2(CC(=O)N(Cc3ccc(C(F)(F)F)cc3)C2=O)c2cc(Cl)ccc21` (stereo not drawn) [Compound 35, 4-[5-chloro-2,2′,5′-trioxo-1′-[4-(trifluoromethyl)benzyl]spiro[indole-3,3′-pyrrolidin]-1(2H)-yl]butanoic acid] returned a Ki of 681 nM. This Ki is about 28-fold higher than that of the compound before.

Compound `Cn1ccnc1CN1C(=O)CC2(C1=O)C(=O)N(CC(=O)O)c1ccc(Cl)cc12` (stereo not drawn) [Compound 32, [5-chloro-1′-[(1-methyl-1H-imidazol-2-yl)methyl]-2,2′,5′-trioxospiro[indole-3,3′-pyrrolidin]-1(2H)-yl]acetic acid] showed a Ki of 1820 nM. Against the preceding compound, the Ki is about 2.7-fold higher.

Consider `O=C(O)CN1C(=O)C2(CC(=O)N(Cc3ccc(Cl)c(Cl)c3)C2=O)c2cc(Cl)ccc21` (stereo not drawn) [Compound 6, [5-chloro-1′-(3,4-dichlorobenzyl)-2,2′,5′-trioxospiro[indole-3,3′-pyrrolidin]-1(2H)-yl]acetic acid], for which the Ki was 100 nM.

Compound `O=C(O)CN1C(=O)C2(NC(=O)N(Cc3ccccc3)C2=O)c2cc(Cl)ccc21` (stereo not drawn) [Compound 107, (1-benzyl-5′-chloro-2,2′,5-trioxospiro[imidazolidine-4,3′-indol]-1′(2′H)-yl)acetic acid] gave a Ki of 300 nM. This Ki lies about 3-fold higher than the previous one.

Compound `COc1ccnc(CN2C(=O)CC3(C2=O)C(=O)N(CC(=O)O)c2ccc(Cl)cc23)c1OC` (stereo not drawn) [Compound 78, [5-chloro-1′-[(3,4-dimethoxypyridin-2-yl)methyl]-2,2′,5′-trioxospiro[indole-3,3′-pyrrolidin]-1(2H)-yl]acetic acid] displayed an inhibitory constant (Ki) of 101 nM.

In the case of `O=C(O)CN1C(=O)C2(CC(=O)N(Cc3ccc(C(F)(F)F)o3)C2=O)c2cc(Cl)ccc21` (stereo not drawn) [Compound 18, [5-chloro-2,2′,5′-trioxo-1′-{[5-(trifluoromethyl)-2-furyl]methyl}spiro[indole-3,3′-pyrrolidin]-1(2H)-yl]acetic acid], the affinity corresponds to a Ki of 270 nM.

As for `O=C(O)CN1C(=O)C2(CC(=O)N(CCc3ccccc3)C2=O)c2cc(Cl)ccc21` (stereo not drawn) [Compound 23, [5-chloro-2,2′,5′-trioxo-1′-(2-phenylethyl)spiro[indole-3,3′-pyrrolidin]-1(2H)-yl]acetic acid], the Ki was 267 nM.

For `O=C(O)CN1C(=O)C2(CC(=O)N(CCOCc3ccccc3)C2=O)c2cc(Cl)ccc21` (stereo not drawn) [Compound 29, [1′-[2-(benzyloxy)ethyl]-5-chloro-2,2′,5′-trioxospiro[indole-3,3′-pyrrolidin]-1(2H)-yl]acetic acid], the Ki was determined as 1130 nM. This Ki lies about 4.2-fold higher than the previous one.

As for `O=C(O)CN1C(=O)C2(CC(=O)N(Cc3cn4ccccc4n3)C2=O)c2cc(Cl)ccc21` (stereo not drawn) [Compound 24, [5-chloro-1′-(imidazo[1,2-a]pyridin-2-ylmethyl)-2,2′,5′-trioxospiro[indole-3,3′-pyrrolidin]-1(2H)-yl]acetic acid], affinity was put at a Ki of 705 nM.

`O=C(O)CN1C(=O)C2(CC(=O)N(Cc3cccs3)C2=O)c2cc(Cl)ccc21` (stereo not drawn) [Compound 77, [5-chloro-2,2′,5′-trioxo-1′-(2-thienylmethyl)spiro[indole-3,3′-pyrrolidin]-1(2H)-yl]acetic acid] showed a Ki of 75 nM.

`O=C(O)CN1C(=O)C2(CC(=O)N(Cc3cccc(Oc4ccccc4)c3)C2=O)c2cc(Cl)ccc21` (stereo not drawn) [Compound 10, [5-chloro-2,2′,5′-trioxo-1′-(3-phenoxybenzyl)spiro[indole-3,3′-pyrrolidin]-1(2H)-yl]acetic acid] returned an inhibition constant (Ki) of 148 nM.

For `Cc1nc(CN2C(=O)CC3(C2=O)C(=O)N(CC(=O)O)c2ccc(Cl)cc23)cs1` (stereo not drawn) [Compound 1, [5-chloro-1′-[(2-methyl-1,3-thiazol-4-yl)methyl]-2,2′,5′-trioxospiro[indole-3,3′-pyrrolidin]-1(2H)-yl]acetic acid], the Ki was 39 nM. Compared with the last compound, the Ki is about 3.8-fold lower.

The compound `O=C(O)CN1C(=O)C2(CC(=O)N(CC3COc4ccccc4O3)C2=O)c2cc(Cl)ccc21` (stereo not drawn) [Compound 16, [5-chloro-1′-(2,3-dihydro-1,4-benzodioxin-2-ylmethyl)-2,2′,5′-trioxospiro[indole-3,3′-pyrrolidin]-1(2H)-yl]acetic acid] showed a Ki of 213 nM.

Compound `O=C(O)CN1C(=O)C2(CC(=O)N(Cc3cccc(Cl)c3)C2=O)c2cc(Cl)ccc21` (stereo not drawn) [Compound 5, [5-chloro-1′-(3-chlorobenzyl)-2,2′,5′-trioxospiro[indole-3,3′-pyrrolidin]-1(2H)-yl]acetic acid] had a Ki of 73 nM.

Take `COc1c(C)cnc(CN2C(=O)CC3(C2=O)C(=O)N(CC(=O)O)c2ccc(Cl)cc23)c1C` (stereo not drawn) [Compound 75, [5-chloro-1′-[(4-methoxy-3,5-dimethylpyridin-2-yl)methyl]-2,2′,5′-trioxospiro[indole-3,3′-pyrrolidin]-1(2H)-yl]acetic acid]: the Ki was determined as 510 nM.

As to `O=C(O)CN1C(=O)C2(CC(=O)N(Cc3csc(-c4cccc(Cl)c4)n3)C2=O)c2cc(Cl)ccc21` (stereo not drawn) [Compound 103, [5-chloro-1′-{[2-(3-chlorophenyl)-1,3-thiazol-4-yl]methyl}-2,2′,5′-trioxospiro[indole-3,3′-pyrrolidin]-1(2H)-yl]acetic acid], the Ki was 6 nM.

In turn, `COc1ccccc1CN1C(=O)CC2(C1=O)C(=O)N(CC(=O)O)c1ccc(Cl)cc12` (stereo not drawn) [Compound 54, [5-chloro-1′-(2-methoxybenzyl)-2,2′,5′-trioxospiro[indole-3,3′-pyrrolidin]-1(2H)-yl]acetic acid] returned an inhibition constant (Ki) of 153 nM. This Ki is about 26-fold higher than that of the compound before.

The compound `N#Cc1ccc(CN2C(=O)CC3(C2=O)C(=O)N(CC(=O)O)c2ccc(Cl)cc23)cc1` (stereo not drawn) [Compound 4, [5-chloro-1′-(4-cyanobenzyl)-2,2′,5′-trioxospiro[indole-3,3′-pyrrolidin]-1(2H)-yl]acetic acid] yielded a Ki of 89 nM. Against the preceding compound, the Ki is about 1.7-fold lower.

As for `O=C(O)CN1C(=O)C2(CC(=O)N(Cc3cnc(Cl)cc3Cl)C2=O)c2cc(Cl)ccc21` (stereo not drawn) [Compound 76, [5-chloro-1′-[(4,6-dichloropyridin-3-yl)methyl]-2,2′,5′-trioxospiro[indole-3,3′-pyrrolidin]-1(2H)-yl]acetic acid], the inhibitory constant (Ki) was determined as 12 nM.

`O=C(O)CN1C(=O)C2(CC(=O)N(Cc3ccccn3)C2=O)c2cc(Cl)ccc21` (stereo not drawn) [Compound 17, [5-chloro-2,2′,5′-trioxo-1′-(pyridin-2-ylmethyl)spiro[indole-3,3′-pyrrolidin]-1(2H)-yl]acetic acid] came in with a Ki of 170 nM. This Ki is about 14-fold higher than that of the compound before.

Consider `O=C(O)CN1C(=O)[C@]2(CC(=O)N(Cc3ccccc3F)C2=O)c2cc(Cl)ccc21` [Compound 110, (3S)-[5-chloro-1′-(2-fluorobenzyl)-2,2′,5′-trioxospiro[indole-3,3′-pyrrolidin]-1(2H)-yl]acetic acid], for which the Ki worked out at 8.4 nM.

As to `Cc1onc(-c2ccccc2)c1CN1C(=O)NC2(C1=O)C(=O)N(CC(=O)O)c1ccc(Cl)cc12` (stereo not drawn) [Compound 106, [5′-chloro-1-[(5-methyl-3-phenylisoxazol-4-yl)methyl]-2,2′,5-trioxospiro[imidazolidine-4,3′-indol]-1′(2′H)-yl]acetic acid], the Ki came out at 1120 nM. This Ki lies about 130-fold higher than the previous one.

Compound `O=C(O)CN1C(=O)C2(CC(=O)N(Cc3ccc4ccccc4n3)C2=O)c2cc(Cl)ccc21` (stereo not drawn) [Compound 3, [5-chloro-2,2′,5′-trioxo-1′-(quinolin-2-ylmethyl)spiro[indole-3,3′-pyrrolidin]-1(2H)-yl]acetic acid] showed a Ki of 93 nM.
